Test results reported in patent US20240166660A1, “KRAS G12C INHIBITORS” (BeiGene Switzerland GmbH, priority 2021, published 2024).
pIC50: −log10 of the molar value.

Target: KRAS (aa 1-169) G12C, C51S, C80L, C118S (Homo sapiens (Human), UniProt P01116, C118S/C51S/C80L/G12C)
Assay: Biochemical functional assay: SOS1-mediated nucleotide exchange of GDP-loaded KRAS G12C, binding to GST-cRaf RBD, FRET readout
Conditions: 3 hrs pre-incubation with compound at 24° C., SOS1, GTPyS, inhibition of nucleotide exchange
Procedure, shortened: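 GDP-loaded His-tagged KRAS construct preincubated with compound 3 h at 24° C in 25 mM HEPES pH7.5, 10 mM MgCl2, 0.01% Triton X-100; SOS1 (aa 564-1049), GTPγS and GST-cRaf RBD added for 3 h, then anti-His Tb cryptate/anti-GST XL665 for 3 h. HTRF 665/620 ratio; IC50 by four-parameter logistic fit.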

KRAS (aa 1-169) G12C, C51S, C80L, C118S, sequence (P01116 other isoform, or with tags, fused parts or gaps G12C/C51S/C80L/C118S): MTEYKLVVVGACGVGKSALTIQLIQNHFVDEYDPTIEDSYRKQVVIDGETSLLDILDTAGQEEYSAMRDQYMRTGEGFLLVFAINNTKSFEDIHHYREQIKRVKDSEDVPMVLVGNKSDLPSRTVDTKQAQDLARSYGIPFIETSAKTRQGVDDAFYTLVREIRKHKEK

Structure (SMILES) | pIC50
C=C(F)C(=O)N1CCN(c2nc(OC[C@@H]3CCCN3C)nc3cc(-c4ccc(F)c5ccccc45)c4c(c23)OCCC4)C[C@@H]1CC#N [Compound B99, 2-((S)-1-(2-fluoroacryloyl)-4-(5-(4-fluoronaphthalen-1-yl)-8-(((S)-1-methylpyrrolidin-2-yl)methoxy)-3,4-dihydro-2H-pyrano[2,3-f]quinazolin-10-yl)piperazin-2-yl)acetonitrile] | 6.82
C=C(F)C(=O)N1CCN(c2nc(N3CC(N(C)C)C3)nc3cc(-c4cccc5cccc(Cl)c45)c4c(c23)OCCC4)C[C@@H]1CC#N [Compound B100, (S)-2-(4-(5-(8-chloronaphthalen-1-yl)-8-(3-(dimethylamino)azetidin-1-yl)-3,4-dihydro-2H-pyrano[2,3-f]quinazolin-10-yl)-1-(2-fluoroacryloyl)piperazin-2-yl)acetonitrile] | 7.74
C=C(F)C(=O)N1CCN(c2nc(OC[C@@H]3CCCN3C)nc3cc(-c4cccc(Cl)c4C(F)(F)F)c4c(c23)OCCC4)C[C@@H]1CC#N [Compound B103, 2-((S)-4-(5-(3-chloro-2-(trifluoromethyl)phenyl)-8-(((S)-1-methylpyrrolidin-2-yl)methoxy)-3,4-dihydro-2H-pyrano[2,3-f]quinazolin-10-yl)-1-(2-fluoroacryloyl)piperazin-2-yl)acetonitrile] | 8.16
